Experimental data from PubChem BioAssay (NCI).
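Interpolation was linear, between the two tested concentrations surrounding the appropriate level; five concentrations were tested over 48 hours in 96-well plates. GI50: concentration for 50% inhibition of growth. TGI: total growth inhibition.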 Where a SMILES comes first, the peptide text is derived from it. [ ]: non-standard residue; d: D form. The star is where a group is joined. Phe(4-NO2) = N[CH](Cc1ccc([N+](=O)[O-])cc1)C(=O)O; Boc = CC(C)(C)OC(=O)*; OBn = c1ccc(CO*)cc1

Columns and labels:
Test in all cases: DTP human tumour cell line panel, 48 h
OVCAR-4 ovarian = tested on: OVCAR-4 ovarian
OVCAR-3 ovarian = tested on: OVCAR-3 ovarian
MDA-MB-231 breast = tested on: MDA-MB-231 breast
IGROV1 ovarian = tested on: IGROV1 ovarian
BT-549 breast = tested on: BT-549 breast
SF-539 CNS = tested on: SF-539 CNS
PC-3 prostate = tested on: PC-3 prostate
HCT-15 colon = tested on: HCT-15 colon
HOP-62 NSCLC = tested on: HOP-62 NSCLC
KM12 colon = tested on: KM12 colon

| Compound | TGI (OVCAR-4 ovarian) [µM] | TGI (OVCAR-3 ovarian) [µM] | TGI (MDA-MB-231 breast) [µM] | TGI (IGROV1 ovarian) [µM] | TGI (BT-549 breast) [µM] | TGI (SF-539 CNS) [µM] | TGI (PC-3 prostate) [µM] | TGI (HCT-15 colon) [µM] | TGI (HOP-62 NSCLC) [µM] | TGI (KM12 colon) [µM] | GI50 (MDA-MB-231 breast) [µM] | GI50 (BT-549 breast) [µM] |
| --- | --- | --- | --- | --- | --- | --- | --- | --- | --- | --- | --- | --- |
| c1ccc2c(-c3cnc(-c4c[nH]c5ccccc45)cn3)c[nH]c2c1 | > 100 | > 100 | > 100 | > 100 | > 100 | 73.7 | > 100 | > 100 | > 100 | > 100 | – | – |
| COC1C(O)CC(OC2C(C)OC(Oc3cc(O)c4c(O)c5c(cc4c3)C[C@@H]([C@H](OC)C(=O)[C@@H](O)[C@@H](C)O)[C@H](OC3CC(OC4CC(OC6CC(C)(O)C(O)C(C)O6)C(O)C(C)O4)C(O)C(C)O3)C5=O)CC2OC(C)=O)OC1C (some centres not stated) | > 100 | > 100 | > 100 | > 100 | > 100 | > 100 | > 100 | > 100 | > 100 | > 100 | – | – |
| COc1ccc(N(C(=O)Nc2ccc(Cl)c(Cl)c2)c2ccccc2)cc1 | > 10 | > 10 | > 10 | > 10 | > 10 | > 10 | > 10 | > 10 | > 10 | > 10 | – | – |
| COc1cccc(N2C(=O)C3c4[nH]c5ccccc5c4C4c5ccccc5CCC4C3C2=O)c1 (configuration not stated) | > 7.12 | > 10 | > 10 | > 10 | > 10 | 6.11 | > 10 | > 10 | 6.81 | > 10 | – | – |
| Cc1ccc([N+](=O)[O-])cc1S(=O)(=O)Nc1ccc(C2=NN(c3ccc([N+](=O)[O-])cc3[N+](=O)[O-])C(c3ccccc3)C2)cc1 (configuration not stated) | 73.7 | 28.4 | 33.4 | 36 | 33 | 50.8 | 28.8 | 36.8 | 33 | 44.8 | – | – |
| CCC(CCCN)Nc1cc(OC)cc2cccnc12 (configuration not stated) | > 100 | > 100 | > 100 | > 100 | > 100 | > 100 | > 100 | > 100 | > 100 | > 100 | – | – |
| Brc1ccc(N=NN2CCCCC2)cc1 | > 100 | > 100 | > 100 | > 100 | > 100 | > 100 | > 100 | > 100 | > 100 | > 100 | – | – |
| COC(=O)CCC(NC(=O)OC(C)(C)C)C(=O)NC(Cc1ccc([N+](=O)[O-])cc1)C(=O)NCC(=O)OCc1ccccc1 (configuration not stated) (Boc-Glu(OMe)-[Phe(4-NO2)]-Gly-OBn; configuration not given here) | > 100 | > 100 | > 91.6 | > 100 | 66.9 | 63.6 | > 100 | > 100 | > 77.6 | > 100 | – | – |
| Cc1cn(C2CC(n3cc(Cn4cc(F)c(=O)[nH]c4=O)nn3)C(CO)O2)c(=O)[nH]c1=O (configuration not stated) | > 100 | > 100 | > 100 | > 100 | > 100 | > 100 | > 100 | > 100 | > 100 | > 100 | – | – |
| CCN1CC(C)Cn2c(=O)[nH]c3cc(Br)cc1c32 (configuration not stated) | > 100 | 77.5 | > 100 | > 100 | 56.8 | > 100 | > 100 | > 100 | > 100 | > 100 | – | – |
| COc1ccc2nc3cc(Cl)ccc3c(NCCCCCC(=O)NC(COc3cnc4c(ccc5cccnc54)c3)COc3cnc4c(ccc5cccnc54)c3)c2c1 | > 100 | 34.6 | 44 | > 100 | 24.1 | 53.5 | 26.8 | > 100 | 35.8 | > 100 | – | – |
| C=CC(=O)N1C/C(=C\c2ccc(N(C)C)cc2)C(=O)/C(=C/c2ccc(N(C)C)cc2)C1 | > 100 | > 100 | > 100 | > 100 | > 100 | > 100 | > 100 | > 100 | > 100 | > 100 | – | – |
| CC1=NOC2(C1)/C(=N/O)CCC/C2=N\O (configuration not stated) | > 100 | > 100 | > 100 | > 100 | > 100 | > 100 | > 100 | > 100 | > 100 | > 100 | – | – |
| CC(=O)OC[C@H]1O[C@@H](O[C@H]2[C@H](OC(C)=O)C=CO[C@@H]2COC(C)=O)C(OC(C)=O)[C@H]2OC(C)(C)O[C@H]21 (some centres not stated) | > 100 | > 100 | > 100 | > 100 | > 100 | > 100 | > 100 | > 100 | > 100 | > 100 | – | – |
| C=CC[C@H]1[C@@H](O[Si](C)(C)C(C)(C)C)[C@H](n2ccc(=O)[nH]c2=O)O[C@@H]1CO[Si](C)(C)C(C)(C)C | 5.97 | 3.12 | 5.4 | 6.05 | 7.67 | 10.4 | 5.89 | 3.63 | 4 | 3.49 | – | – |
| Cn1ccnc1S/C(=C\C=C(C#N)C#N)c1ccc(Cl)cc1 | > 17.9 | 5.29 | 15 | 16.1 | > 28.7 | 6.58 | 9.22 | 9.11 | 11.1 | 6.22 | 4.15 | 5.14 |
